PMC11672637, “7-O-Carboxylic Acid-Substituted 3-O-Alkyl Difluoroquercetin; An Aztreonam-Potentiating Agent Against Carbapenemase-Producing Pseudomonas aeruginosa Through Simultaneous Inhibition of Metallo-β-Lactamase and Efflux Pump” (Antibiotics, 2024)
Like-named read-outs stand apart in the source and are kept apart here.

Key:
[1] = system: HEK293 cells; assay: Cytotoxicity assay (WST-1); format: cell-based, human; details: 24 h, 0.5–128 mg/L tested
Method: The HEK293 cells were cultured in Dulbecco’s modified Eagle medium (DMEM) supplemented with 10% fetal bovine serum (FBS) and 1% penicillin-streptomycin solution at 37 °C with 5% CO2. The cells seeded into 96-well plates at 1.5 × 10^4 cells/well were incubated for 24 h. The compound 5 was added to the wells at concentrations ranging from 0.5 to 128 mg/L and incubated for 24 h. Then, for WST-1 assay, EZ-cytox solution (10 μL, DoGenBio, Seoul, Republic of Korea) was added to the wells and incubated for 1 h, and the absorbance was measured at 450 nm (Cytation 5 imaging multimode reader, BioTek Instruments, Inc., Winooski, VT, USA).

[2] = In vivo pharmacokinetic study; set-up: species or system Sprague–Dawley (SD) rats; details: rat; for Vd: iv, 5 mg/kg; for MRT last: read-out: MRT0–last; for MRT inf: read-out: MRT0–∞
Method: After administration of compound 5 (5 mg/kg intravenously and 10 mg/kg orally) to specific pathogen-free (SPF) male Sprague–Dawley (SD) rats (Medicilon Colony: 999M-017), samples of serum were taken at eight different time points (0.083, 0.25, 0.5, 1, 2, 4, 8, and 24 h). Analysis of the samples were performed by liquid chromatography with tandem mass spectrometry (LC-MS/MS). A standard set of parameters were calculated using non-compartmental analysis modules in FDA certified pharmacokinetic program Phoenix WinNonlin 7.0 (Pharsight, Mountain View, CA, USA).

[3] = system: efflux pump activity in P. aeruginosa (PA-017, blaNDM); assay: EtBr accumulation, inhibition of efflux pump activity; format: cell-based; details: EtBr fluorescence compared with positive control CCCP
Method: The NDM-producing P. aeruginosa clinical isolate (PA-017, blaNDM) (5 mL, LB medium) was grown to reach the mid-log phase. After centrifugation at 3500 rpm for 15 min, the bacterial pellet was washed twice with PBS and resuspended to OD600 = 0.3 in PBS. To each well of a flat-bottomed black 96-well plate, 182 µL of the bacterial suspension, 4 µL of glucose [final concentration = 0.4% (w/v)], 4 µL of the synthesized compounds or positive control CCCP, and 10 µL of EtBr (final concentration = 1 µg/mL) were added. The plate was incubated at 37 °C, and fluorescence emission from EtBr (λex 480 nm/λem 630 nm) was recorded every 2 min (for 60 min) using a Cytation 5 imaging multi-mode reader (BioTek Instruments, Inc., Winooski, VT, USA).

[4] = system: human red blood cells; assay: Hemolytic activity assay; format: cell-based; details: human RBCs; 4–128 mg/L tested
Method: Washed human red blood cells (hRBCs, Innovative Research, Novi, MI, USA) were diluted 1:100 in HEPES-NaOH buffered saline (HBS) [150 mM NaCl/5 mM HEPES-NaOH (pH 7.4)]. Samples (100 μL) were taken from the serially diluted (4 to 128 mg/L) compound 5 and mixed with 250 μL of hRBCs in 1.5 mL microcentrifuge tube. After incubation at 37 °C for 30 min, the tubes were centrifuged at 3000 rpm for 5 min. The supernatant (50 μL), thus obtained, was transferred to transparent, flat-bottom 96-well plates and absorption was measured at 405 nm (Cytation 5 imaging multimode reader, BioTek Instruments, Inc., Winooski, VT, USA). In some cases, 1% TritonX-100 or HBS buffer was used instead of the compound 5 as positive and negative controls, respectively. The percentage of hemolysis was calculated as follows: % Hemolysis = (ODtest − ODHBS)/[…] × 100%.

[5] = molecular target: T1, VIM-2 (Escherichia coli, UniProt Q5U7L7); assay: β-lactamase inhibition assay (nitrocefin); format: biochemical; details: nitrocefin substrate; read-out: BLi, IC50 VIM-2
T1 construct: VIM-2 (residues 27–266); made in house; host or cells: Escherichia coli
Method: (§1) Recombinant AmpC, OXA-48 (residues 23–265) and VIM-2 (residues 27–266) were prepared from Escherichia coli based on previously established protocols. KPC-2 and NDM-1 are commercially available from LifeSpan Biosciences, Inc., Seattle, WA, USA (LS-G26598) and RayBiotech, Inc., Peachtree Corners, GA, USA (230-00554), respectively. For β-lactamase inhibition assay, in a 96-well plate, 70–0.1 μM (in PBS) of the synthesized compounds (1~14) (100 μL) were mixed with diluted β-lactamase stock (2% DMSO in 200 μL). In a separate 96-well plate, a substrate of AmpC, KPC-2, OXA-48, and VIM-2 (nitrocefin) and NDM-1 (imipenem) were added into each well (final concentrations of 70 μM for nitrocefin and 100 μM for imipenem). After incubation at 37 °C for 20 min, the mixture of the synthesized compounds (1~14) and β-lactamase in one plate was added to the substrate in the other plate. Enzymatic hydrolysis of the substrate was then monitored by a Cytation 5 imaging multimode reader (BioTek Instruments Inc., Winooski, VT, USA) at 486 nm and 300 nm for nitrocefin and imipenem, respectively, for 15 min. The rates of hydrolysis in the presence of the inhibitors were determined when the reaction rate plateaued. Comparison of the enzymatic hydrolysis rates in the presence and the absence of inhibitors (100%) provided the percentage of enzyme inhibition at each concentration of the synthesized compounds. The IC50 values were obtained after non-linear regression (sigmoidal dose-responses) by GraphPad Prism 5 (GraphPad Software, Boston, MA, USA).

[6] = molecular target: AmpC; assay: β-lactamase inhibition assay (nitrocefin); format: biochemical; details: nitrocefin substrate; read-out: BLi, IC50 AmpC
Method: as §1

[7] = molecular target: T2, OXA-48 (Klebsiella pneumoniae, UniProt Q6XEC0); assay: β-lactamase inhibition assay (nitrocefin); format: biochemical; details: nitrocefin substrate; read-out: BLi, IC50 OXA-48
T2 construct: OXA-48 (residues 23–265); made in house; host or cells: Escherichia coli
Method: as §1

[8] = molecular target: T3, KPC-2 (Klebsiella pneumoniae, UniProt Q9F663); assay: β-lactamase inhibition assay (nitrocefin); format: biochemical; details: nitrocefin substrate; read-out: BLi, IC50 KPC-2
T3 construct: purchased LifeSpan Biosciences, Inc. LS-G26598
Method: as §1

[9] = male, Sprague-Dawley, serum, Intravenous (5 mg/kg)
[10] = male, Sprague-Dawley, serum, Oral (10 mg/kg)

T3 sequence (Q9F663 25-293, looked up, species assumed): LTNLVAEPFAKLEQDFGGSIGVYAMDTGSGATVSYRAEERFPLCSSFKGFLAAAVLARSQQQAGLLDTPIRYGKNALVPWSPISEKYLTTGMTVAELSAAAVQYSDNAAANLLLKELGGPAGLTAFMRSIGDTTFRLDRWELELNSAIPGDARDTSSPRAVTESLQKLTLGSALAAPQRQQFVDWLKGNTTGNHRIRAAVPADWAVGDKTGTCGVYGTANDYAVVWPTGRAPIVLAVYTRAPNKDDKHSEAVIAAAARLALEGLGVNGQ
T2 sequence (Q6XEC0 23-265 limits assumed): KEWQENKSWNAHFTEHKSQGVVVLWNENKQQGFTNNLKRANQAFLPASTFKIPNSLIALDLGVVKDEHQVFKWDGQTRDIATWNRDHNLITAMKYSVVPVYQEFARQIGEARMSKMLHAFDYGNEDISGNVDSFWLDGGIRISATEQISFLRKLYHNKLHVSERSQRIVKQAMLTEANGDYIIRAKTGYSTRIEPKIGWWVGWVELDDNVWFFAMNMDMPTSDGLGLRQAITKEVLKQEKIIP

CC(C)(C)CCOc1c(-c2ccc(F)c(F)c2)oc2cc(OCC(=O)O)cc(O)c2c1=O [Compound 5, 2-((2-(3,4-Difluorophenyl)-3-(3,3-dimethylbutoxy)-5-hydroxy-4-oxo-4H-chromen-7-yl)oxy)acetic Acid]
Concentration at which cell viability was affected [1]: greater than 64 mg/L | Vd ([2]; male, Sprague-Dawley, serum, Intravenous (5 mg/kg), read-out: Vss): 0.65 ± 0.09 L/kg | Vd ([2]; male, Sprague-Dawley, serum, Intravenous (5 mg/kg), read-out: Vz): 1.84 ± 0.76 L/kg | Vd ([2]; male, Sprague-Dawley, serum, intravenous 5 mg/kg, read-out: Vss): 0.65 L/kg | AUC(0-inf) [2, 9]: 3.61 ± 0.59 µg·h/mL | AUC(0-t) [2, 9]: 3.6 ± 0.59 µg·h/mL | C0 [2, 9]: 11.1 ± 2.39 µg/mL | half-life [2, 9]: 0.92 ± 0.42 h | clearance ([2]; male, Sprague-Dawley, serum, Intravenous (5 mg/kg), read-out: Cl (systemic clearance)): 1.41 L/h/kg | Cmax ([2]; male, Sprague-Dawley, serum, Intravenous (5 mg/kg), read-out: Cmax): 7.51 µg/mL | MRT last [2, 9]: 0.45 ± 0.02 h | MRT inf [2, 9]: 0.46 ± 0.02 h | AUC(0-inf) [2, 10]: 1.28 ± 0.54 µg·h/mL | AUC(0-t) [2, 10]: 1.25 ± 0.57 µg·h/mL | Tmax [2, 10]: 2 h | half-life [2, 10]: 1.28 ± 0.53 h | Cmax ([2]; male, Sprague-Dawley, serum, Oral (10 mg/kg), read-out: Cmax): 0.29 ± 0.14 µg/mL | bioavailability ([2]; male, Sprague-Dawley, serum, Oral (10 mg/kg), read-out: F (bioavailability)): 17.3 ± 7.88% | MRT last [2, 10]: 2.87 ± 0.25 h | MRT inf [2, 10]: 3.13 ± 0.35 h | Cmax ([2]; Intravenous (5 mg/kg)): 7.51 ± 1.34 µg/mL | EPi (inhibition of efflux pump activity) [3]: ↑ ^g | Concentration up to which no noticeable toxic effect (hemolysis) [4]: ≥ 128 µg/mL | IC50 [5]: > 100 µM | IC50 [6]: > 50 µM | IC50 [7]: > 100 µM | IC50 [8]: > 50 µM
